The text below walks through data of publication PMC9186491, “Novel Small Molecule Tyrosine Kinase 2 Pseudokinase Ligands Block Cytokine-Induced TYK2-Mediated Signaling Pathways” (Frontiers in Immunology, 2022).

SMILES strings stand for the structures. Where “and” joins values, the source holds several entries; their conditions need not be identical. Identical values can stand only once. Like-named read-outs stand apart in the source and are kept apart here.

The target of series [1] is T1, TYK2 JH2 pseudokinase domain (Homo sapiens, UniProt P29597).
T1 construct: purchased Eurofins DiscoverX Corporation (contract assay)
T1 sequence (P29597 589-875 limits assumed): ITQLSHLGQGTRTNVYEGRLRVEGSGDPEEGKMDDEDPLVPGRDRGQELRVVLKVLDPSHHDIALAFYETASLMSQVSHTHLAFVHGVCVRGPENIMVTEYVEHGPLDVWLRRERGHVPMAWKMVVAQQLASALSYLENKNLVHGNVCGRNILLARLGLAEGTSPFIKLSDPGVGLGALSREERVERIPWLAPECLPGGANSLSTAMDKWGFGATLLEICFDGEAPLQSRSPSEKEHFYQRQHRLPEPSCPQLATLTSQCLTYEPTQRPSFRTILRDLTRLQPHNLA
Description: KdELECT competition binding assay, TYK2 JH2. The note with it: isolated TYK2 JH2 domain. As to the method:
(§1) The KdELECT competition assays were performed to test the binding affinity of compounds to the JH1 kinase region or JH2 pseudokinase region in TYK2 or JAK by ligand competition with JH1 or JH2 protein segments. The assay was carried out at Eurofins DiscoverX Corporation following the established standard protocol (DiscoverX, San Diego, CA). In this assay, compounds that bind to the kinase or pseudokinase protein regions prevent the protein binding to the immobilized ligand and reduce the amount of kinase matter captured on the solid surface. […] Dissociation constants (Kds) for test compound-kinase interactions are calculated by measuring the amount of kinase captured on the solid support as a function of the test compound concentration. […] The ligated beads were blocked with excess biotin and washed with blocking buffer to remove unbound ligand and to reduce nonspecific binding. […] All reactions were performed in polypropylene 384-well plates with a final volume of 20 μL. […] The beads were then re-suspended in the elution buffer and incubated at room temperature with shaking for 30 minutes. The kinase concentration in the eluant was measured by qPCR. Two replicates were performed and averaged to obtain the Kd measurement.

In the next series the target is T2, JAK2 JH1 kinase domain (Homo sapiens, UniProt O60674).
T2 construct: purchased Eurofins DiscoverX Corporation (contract assay)
T2 sequence (O60674 849-1124 limits assumed): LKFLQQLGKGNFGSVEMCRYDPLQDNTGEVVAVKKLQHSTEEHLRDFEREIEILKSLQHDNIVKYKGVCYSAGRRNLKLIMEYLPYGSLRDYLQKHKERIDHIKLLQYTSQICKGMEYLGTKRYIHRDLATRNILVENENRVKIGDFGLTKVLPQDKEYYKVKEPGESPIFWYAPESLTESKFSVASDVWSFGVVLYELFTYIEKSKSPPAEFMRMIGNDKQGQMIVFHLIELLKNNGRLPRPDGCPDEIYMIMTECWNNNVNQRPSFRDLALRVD
In words: KdELECT competition binding assay, JAK2 JH1. The conditions noted are these: read-out: JAK Binding Selectivity (Kd) Catalytical Domain (JH1) JAK2. The method, then: as §1

For a further series, the target named is T3, JAK3 JH1 kinase domain (Homo sapiens, UniProt P52333).
T3 construct: purchased Eurofins DiscoverX Corporation (contract assay)
T3 sequence (P52333 822-1111 limits assumed): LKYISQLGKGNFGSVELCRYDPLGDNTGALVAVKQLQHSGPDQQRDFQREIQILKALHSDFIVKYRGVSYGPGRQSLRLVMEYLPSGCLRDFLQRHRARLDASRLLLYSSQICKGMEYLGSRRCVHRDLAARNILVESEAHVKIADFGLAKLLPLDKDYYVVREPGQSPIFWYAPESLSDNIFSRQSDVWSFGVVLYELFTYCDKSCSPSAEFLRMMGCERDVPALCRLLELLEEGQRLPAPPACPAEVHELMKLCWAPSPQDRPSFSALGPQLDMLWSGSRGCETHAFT
In words: KdELECT competition binding assay, JAK3 JH1. The conditions noted are these: read-out: JAK Binding Selectivity (Kd) Catalytical Domain (JH1) JAK3. The method, then:
as §1

Series [2] concerns the target T4, JAK1 JH2 pseudokinase domain (Homo sapiens, UniProt P23458).
T4 construct: purchased Eurofins DiscoverX Corporation (contract assay)
In words: KdELECT competition binding assay, JAK1 JH2. The conditions noted are these: read-out: JAK Binding Selectivity (Kd) Pseudokinase Domain (JH2) JAK1. As to the method:
as §1

The test system of series [3] is IL23-induced TYK2/phosphoSTAT3 (Tyr705) in Kit225 T cells. Description: Kit225 T cell assay for IL23-induced TYK2/phosphoSTAT3 activity. The conditions noted are these: Homo sapiens; Kit225 cells, 100 ng/mL IL23, AlphaLISA; read-out: IC50 IL23-induced-STAT3 Phosphorylation. The format is cell-based, human. The method, then: The cells were treated with serially diluted compounds for 1 hour and stimulated with 100 ng/mL human recombinant IL23 (R&D Systems) for 20 minutes. The treated cells were then lysed and cellular phosphorylated-STAT3 (Tyr705) levels were measured by AlphaLISA (PerkinElmer, Cat# ALSU-PST3) according to the manufacturer’s instructions.
(In Alpha technology, singlet oxygen from a donor bead excites a nearby acceptor bead.)

In series [4] the test system is JAK1-dependent IL6-induced phosphorylation of STAT3 (Tyr705) in TF1 cells. Description: JAK cellular selectivity assay, IL6-pSTAT3 (JAK1). Type of series: cell-based. The note with it: Homo sapiens, TF-1; TF1 cells; read-out: JAK Cellular Selectivity (IC50) IL6-pSTAT3 (JAK1). The method, then:
(§2) The cells were then ready for the assay after incubating for 2 hours in a humidified, 5% CO2 cell culture incubator at 37°C. […] The curve fit was generated, and statistical analysis was performed using GraphPad Prism. IC50 values were derived by non-linear regression analysis and defined as the compound concentration at which the response level was reduced to half of its maximum relative to a DMSO control.

In series [5] the test system is JAK2-dependent EPO-induced phosphorylation of STAT5 (Tyr694/699) in TF1 cells. In words: JAK cellular selectivity assay, EPO-pSTAT5 (JAK2). The format is cell-based, human. The note with it: Homo sapiens, TF-1; TF1 cells; read-out: JAK Cellular Selectivity (IC50) EPO-pSTAT5 (JAK2). The method, then: as §2
Series [6] relates to JAK1/3-dependent IL2-induced phosphorylation of STAT5 (Tyr694/699) in Kit225 cells. In words: JAK cellular selectivity assay, IL2-pSTAT5 (JAK1/3). The format is cell-based. The conditions noted are these: Homo sapiens; Kit225 cells; read-out: JAK Cellular Selectivity (IC50) IL2-pSTAT5 (JAK1/3). The method, then:
as §2

A short description of a further series: LM T1/2, H. Type of series: in vitro ADME. The conditions noted are these: human, liver microsomes. In general terms: Liver microsomes are a subcellular fraction often used to study metabolism.
A short description of another series: LM T1/2, D. Type of series: in vitro ADME. The note with it: dog, liver microsomes.
Another series deals with T5, CYP450 1A2 (Homo sapiens, UniProt P05177).
T5 sequence (P05177 1-516): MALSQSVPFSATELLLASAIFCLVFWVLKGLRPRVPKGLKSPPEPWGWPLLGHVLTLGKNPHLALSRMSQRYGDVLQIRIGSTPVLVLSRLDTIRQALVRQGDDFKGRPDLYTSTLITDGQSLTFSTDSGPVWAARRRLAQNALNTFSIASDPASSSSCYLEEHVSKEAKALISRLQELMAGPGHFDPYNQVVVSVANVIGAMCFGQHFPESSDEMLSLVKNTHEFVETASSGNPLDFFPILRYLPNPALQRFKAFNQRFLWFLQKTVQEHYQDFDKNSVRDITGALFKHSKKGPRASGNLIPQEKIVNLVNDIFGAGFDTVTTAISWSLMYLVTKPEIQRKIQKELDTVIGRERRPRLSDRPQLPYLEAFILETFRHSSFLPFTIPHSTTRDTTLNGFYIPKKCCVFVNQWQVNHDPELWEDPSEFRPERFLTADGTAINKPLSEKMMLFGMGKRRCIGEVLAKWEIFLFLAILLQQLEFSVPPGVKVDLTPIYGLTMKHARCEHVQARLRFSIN
In words: CYP450 inhibition, 1A2. The format is in vitro ADME.

The next series deals with CYP450 3A4 (Homo sapiens, UniProt P08684). Description: CYP450 inhibition, 3A4. The format is in vitro ADME.
Sequence of CYP450 3A4 (P08684 whole entry): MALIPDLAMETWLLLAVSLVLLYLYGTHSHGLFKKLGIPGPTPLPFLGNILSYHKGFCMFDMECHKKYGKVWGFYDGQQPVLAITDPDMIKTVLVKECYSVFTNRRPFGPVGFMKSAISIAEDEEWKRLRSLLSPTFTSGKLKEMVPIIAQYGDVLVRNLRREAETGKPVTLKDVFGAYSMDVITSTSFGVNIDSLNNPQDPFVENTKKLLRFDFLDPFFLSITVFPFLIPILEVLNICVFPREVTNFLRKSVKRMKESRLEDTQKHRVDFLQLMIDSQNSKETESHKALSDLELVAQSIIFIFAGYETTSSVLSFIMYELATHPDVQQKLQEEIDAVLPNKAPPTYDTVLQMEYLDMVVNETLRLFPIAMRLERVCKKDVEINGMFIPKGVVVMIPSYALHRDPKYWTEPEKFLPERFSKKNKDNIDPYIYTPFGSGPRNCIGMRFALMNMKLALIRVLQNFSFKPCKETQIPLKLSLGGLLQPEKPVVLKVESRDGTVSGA
The target of another series is CYP450 2C19 (Homo sapiens, UniProt P33261). Description: CYP450 inhibition, 2C19. Type of series: in vitro ADME.
Sequence of CYP450 2C19 (P33261 whole entry): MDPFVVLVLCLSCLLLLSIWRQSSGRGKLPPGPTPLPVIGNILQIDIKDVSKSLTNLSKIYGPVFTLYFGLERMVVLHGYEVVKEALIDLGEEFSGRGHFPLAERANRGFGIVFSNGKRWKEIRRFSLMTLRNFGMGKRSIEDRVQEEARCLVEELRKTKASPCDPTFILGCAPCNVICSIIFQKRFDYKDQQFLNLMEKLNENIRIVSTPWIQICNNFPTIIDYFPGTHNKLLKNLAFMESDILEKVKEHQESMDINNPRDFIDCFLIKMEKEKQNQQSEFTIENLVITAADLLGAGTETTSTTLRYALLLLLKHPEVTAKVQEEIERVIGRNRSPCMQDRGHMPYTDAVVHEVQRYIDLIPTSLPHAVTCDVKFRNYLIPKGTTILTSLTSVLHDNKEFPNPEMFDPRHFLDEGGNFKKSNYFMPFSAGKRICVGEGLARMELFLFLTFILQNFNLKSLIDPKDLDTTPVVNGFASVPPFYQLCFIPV
[7] abbreviates: 3A4(m), read-out: CYP450 3A4(m).
Where [8] appears, read: 3A4(t), read-out: CYP450 3A4(t).

T4 sequence (P23458 583-855 limits assumed): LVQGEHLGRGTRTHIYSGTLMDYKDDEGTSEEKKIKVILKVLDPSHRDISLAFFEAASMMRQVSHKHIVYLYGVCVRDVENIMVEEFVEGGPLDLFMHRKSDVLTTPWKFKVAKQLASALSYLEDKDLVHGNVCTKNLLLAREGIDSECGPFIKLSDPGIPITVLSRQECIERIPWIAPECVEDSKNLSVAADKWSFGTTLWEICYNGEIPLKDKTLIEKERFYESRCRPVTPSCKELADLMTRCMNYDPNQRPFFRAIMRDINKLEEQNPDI

For orientation: Kd means the concentration at which binding is half-saturated. Broadly, the half-life is the time in which the quantity being followed falls by half. On to `CNC(=O)c1nnc(NC(=O)N2CCC2)cc1Nc1cccc(-c2ncn(C)n2)c1OC` [SHR8751], for which the Kd in [1] stood at 0.032 nM; at JAK2 JH1 kinase domain, 6500 ± 1700 nM; on JAK3 JH1 kinase domain, 3700 ± 70 nM; in [2], 3.7 ± 0.14 nM. Moreover, the IC50 in series [3] was 27 nM; in [4] it was 5800 ± 3700 nM; in series [5] it was > 10000 nM; in series [6] it was > 10000 nM; against CYP450 1A2 it was > 30000 nM; at CYP450 3A4 (setting [7]) it was > 30000 nM. Besides, the IC50 at CYP450 3A4 (setting [8]) and at CYP450 2C19 was > 30000 nM throughout. Also, the half-life was > 2.32 h in “LM T1/2, H” and > 2.32 h in “LM T1/2, D”.

With `CNC(=O)c1nnc(NC(=O)C2CC2)c2[nH]c(-c3ccc(N)cc3OC)cc12` [SHR2396], the Kd in series [1] was 0.029 nM and 0.019 nM; at JAK2 JH1 kinase domain, > 20000 nM; on JAK3 JH1 kinase domain it was > 20000 nM; in series [2], 0.52 ± 0.4 nM. Further, the IC50 is 5.9 nM in series [3]; 150 ± 59 nM in series [4]; > 10000 nM in [5]; 1400 ± 1400 nM in [6]; > 30000 nM against CYP450 1A2; > 30000 nM at CYP450 3A4 (setting [7]). The IC50 at CYP450 3A4 (setting [8]) and on CYP450 2C19 was > 30000 nM each time. Besides, the half-life in the series “LM T1/2, H” is > 2.32 h; in the series “LM T1/2, D”, > 2.32 h.

For the compound `[2H]C([2H])([2H])NC(=O)c1nnc(NC(=O)N2CCC2)cc1Nc1cccc(-c2ncn(C)n2)c1OC` [SHR9332], the Kd in series [1] stood at 0.04 nM; on JAK2 JH1 kinase domain, 2000 nM; at JAK3 JH1 kinase domain, 4500 nM; in series [2] it was 1.8 nM. The IC50 is 79 nM in series [3]; 2800 ± 1700 nM in [4]; > 10000 nM in series [5]; > 10000 nM in [6]; > 30000 nM at CYP450 1A2; > 30000 nM at CYP450 3A4 (setting [7]). The IC50 on CYP450 3A4 (setting [8]) and on CYP450 2C19 was > 30000 nM each time. In addition, the half-life in “LM T1/2, H” came out at 0.792 h; in “LM T1/2, D” it was 0.775 h.
